This note sets out measurements from US20260184687A1, “DIHYDROINDENE DERIVATIVES AS MALT1 INHIBITORS” (C4X Discovery Limited, priority 2022, published 2026).

Usually IC50 stands for the point on the concentration scale where inhibition reaches its midpoint.

The subject of assay [1] is IL-2 release from stimulated Jurkat cells. Description: Human IL-2 Release Phenotypic Assay (Assay 3). The class given is cell-based. Conditions: Jurkat cells (clone E6-1), 200 ng/mL PMA + 300 ng/mL ionomycin, 48 hours, IL-2 by ELISA. The essentials: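 Jurkat E6-1 cells in RPMI1640/10% FBS were seeded at 50 000 cells/well and incubated overnight at 37° C. Half-log compound dilutions (0.5% final DMSO) were added for 30 min, then cells were stimulated with 200 ng/mL PMA + 300 ng/mL ionomycin for 48 h. IC50 came from a 4-parameter non-linear regression fit.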
For orientation: An ELISA detects its analyte on a solid surface through an enzyme-linked reagent.

Assay [2] has as its target T1, MALT1-GS-Ub (6-His-hMALT-1 residues 339-715 fused to ubiquitin) (Homo sapiens, UniProt Q9UDY8).
Description: (§1) MALT1 protease activity was assessed in vitro by measuring the cleavage of a fluorogenic tetrapeptide substrate.
(§2) A protein (MALT1-GS-Ub) comprising 6-His-hMALT-1 (residues 339-715), fused to ubiquitin with an 8×GGS linker, was expressed in E. coli, and purified using chitin resin to remove contaminants followed by affinity chromatography purification and size-exclusion chromatography, according to standard protocols.
(§3) Briefly, MALT1-GS-Ub (300-600 nM) was incubated with substrate (Ac-LVSR-AMC, 100 μM) in reaction buffer comprising 50 mM HEPES (pH7.0), 25 mM KCl, 0.1% (v/v) CHAPS and 1 mM TCEP.
(§4) Test compounds dissolved in DMSO were dispensed into assay plates (384-well, black, shallow ProxiPlates). 7 μl enzyme solution was added and incubated at room temperature for 30 minutes to allow compound binding to occur. 2 μl substrate solution was then added and the fluorescence (excitation 360 nm, emission 460 nm) read every 15 minutes using a suitable plate reader. Final assay DMSO concentration was 1%. […] IC50 values were calculated using GraphPad Prism using a 4-parameter non-linear regression curve fit.
A further assay addresses T2, FL hMALT1 enzyme (Homo sapiens, UniProt Q9UDY8).
T2 sequence (Q9UDY8 1-824): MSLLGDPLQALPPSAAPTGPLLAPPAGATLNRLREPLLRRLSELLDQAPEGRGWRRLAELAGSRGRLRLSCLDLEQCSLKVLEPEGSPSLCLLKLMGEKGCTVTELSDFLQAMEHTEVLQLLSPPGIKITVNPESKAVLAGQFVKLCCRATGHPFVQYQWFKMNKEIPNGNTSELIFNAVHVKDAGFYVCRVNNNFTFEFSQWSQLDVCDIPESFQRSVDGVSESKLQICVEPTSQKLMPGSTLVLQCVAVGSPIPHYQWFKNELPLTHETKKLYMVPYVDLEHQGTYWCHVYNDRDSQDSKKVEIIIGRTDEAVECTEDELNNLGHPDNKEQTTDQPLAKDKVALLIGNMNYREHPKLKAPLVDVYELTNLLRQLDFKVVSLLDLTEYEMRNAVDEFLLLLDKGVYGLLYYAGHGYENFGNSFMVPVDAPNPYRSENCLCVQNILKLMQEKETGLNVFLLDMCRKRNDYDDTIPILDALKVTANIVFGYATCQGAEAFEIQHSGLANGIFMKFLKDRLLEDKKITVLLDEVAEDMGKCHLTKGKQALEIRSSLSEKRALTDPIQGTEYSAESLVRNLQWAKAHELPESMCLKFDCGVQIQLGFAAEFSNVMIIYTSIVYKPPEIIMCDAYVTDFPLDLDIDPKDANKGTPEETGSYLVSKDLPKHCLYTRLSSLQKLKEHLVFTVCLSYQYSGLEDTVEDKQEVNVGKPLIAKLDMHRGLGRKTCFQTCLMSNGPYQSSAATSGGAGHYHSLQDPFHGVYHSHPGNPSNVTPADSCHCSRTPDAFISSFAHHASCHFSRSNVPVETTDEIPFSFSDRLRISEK

In assay [3] the target is T1, MALT1-GS-Ub (6-His-hMALT-1 residues 339-715 fused to ubiquitin). The assay can be described thus: biochemical.
Description: as §1, §2, §3, §4

Read-outs that look alike come from different tables or passages of the source.

T1 sequence (Q9UDY8 with tags, fused parts or gaps limits assumed): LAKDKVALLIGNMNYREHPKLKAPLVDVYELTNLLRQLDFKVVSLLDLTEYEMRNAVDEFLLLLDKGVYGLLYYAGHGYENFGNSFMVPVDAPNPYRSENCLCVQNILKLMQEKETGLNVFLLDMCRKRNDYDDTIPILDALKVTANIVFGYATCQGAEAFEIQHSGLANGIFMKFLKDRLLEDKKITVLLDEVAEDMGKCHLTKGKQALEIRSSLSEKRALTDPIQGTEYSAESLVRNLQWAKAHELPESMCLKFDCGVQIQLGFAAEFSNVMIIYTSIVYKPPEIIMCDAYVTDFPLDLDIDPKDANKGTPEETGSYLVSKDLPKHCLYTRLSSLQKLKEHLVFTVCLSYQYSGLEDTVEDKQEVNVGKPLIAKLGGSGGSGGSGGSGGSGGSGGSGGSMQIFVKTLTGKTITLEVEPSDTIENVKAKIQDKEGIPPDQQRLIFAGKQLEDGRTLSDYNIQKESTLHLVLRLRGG

`CC1c2ccccc2CC1Nc1ccc([C@H](N(C)C(=O)C2CCS(=O)(=O)CC2)C(F)(F)F)cc1` (stereo in doubt) [Example 9, N-Methyl-N—((S)-2,2,2-trifluoro-1-(4-(((1,2-trans)-1-methyl-2,3-dihydro-1H-inden-2-yl)amino)phenyl)ethyl)tetrahydro-2H-thiopyran-4-carboxamide 1,1-dioxide]: the IC50 in assay [1] turned out to be 0.21 µM; in assay [2] it was 0.24 µM; against FL hMALT1 enzyme it was 0.006 µM.

On to `CN(C(=O)C1CCS(=O)(=O)CC1)[C@@H](c1ccc(NC2Cc3ccccc3C2(C)C)nc1)C(F)(F)F` (single isomer, unassigned) [Example 37], for which the values for the half-maximal inhibitory concentration (IC50) (in assay [1]; against FL hMALT1 enzyme; in assay [3]) were 0.5 µM, 0.039 µM and 0.27 µM, respectively.

In the case of `COC1c2ccccc2CC1Nc1ccc([C@H](N(C)C(=O)C2CCS(=O)(=O)CC2)C(F)(F)F)cc1` (stereo in doubt) [Example 11, N-Methyl-N—((S)-2,2,2-trifluoro-1-(4-(((1,2-trans)-1-methoxy-2,3-dihydro-1H-inden-2-yl)amino)phenyl)ethyl)tetrahydro-2H-thiopyran-4-carboxamide 1,1-dioxide], the concentration for half-maximal inhibition (IC50) in assay [1] is greater than 10 µM; in assay [2] it was 3.89 µM; against FL hMALT1 enzyme, 1.2 µM.
